Laboratory results published in PubChem BioAssay (NCI).
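Abbreviation: GI50, concentration required for 50% inhibition of growth. At the TGI there is no net growth.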

What was measured:
Assay in all cases: growth of human tumour cells (NCI), 384-well format
BT-549 breast = tested on: BT-549 breast
OVCAR-8 ovarian = tested on: OVCAR-8 ovarian
UACC-62 melanoma = tested on: UACC-62 melanoma
IGROV1 ovarian = tested on: IGROV1 ovarian
HCT-15 colon = tested on: HCT-15 colon
EKVX NSCLC = tested on: EKVX NSCLC
SN12C renal = tested on: SN12C renal
NCI-H23 lung = tested on: NCI-H23 lung
SK-MEL-5 melanoma = tested on: SK-MEL-5 melanoma
UO-31 renal = tested on: UO-31 renal
ACHN renal = tested on: ACHN renal
A498 renal = tested on: A498 renal
TK-10 renal = tested on: TK-10 renal
OVCAR-3 ovarian = tested on: OVCAR-3 ovarian
SNB-75 CNS = tested on: SNB-75 CNS
RXF 393 renal = tested on: RXF 393 renal
COLO 205 colon = tested on: COLO 205 colon
SR leukemia = tested on: SR leukemia
RPMI-8226 leukemia = tested on: RPMI-8226 leukemia
SF-295 CNS = tested on: SF-295 CNS
U251 glioblastoma = tested on: U251 glioblastoma
A549 NSCLC = tested on: A549 NSCLC
SK-OV-3 ovarian = tested on: SK-OV-3 ovarian
NCI-H226 lung = tested on: NCI-H226 lung
HS 578T breast = tested on: HS 578T breast
SK-MEL-28 melanoma = tested on: SK-MEL-28 melanoma
NCI-H322M lung = tested on: NCI-H322M lung
SNB-19 CNS = tested on: SNB-19 CNS
HOP-62 NSCLC = tested on: HOP-62 NSCLC
DU-145 prostate = tested on: DU-145 prostate
OVCAR-4 ovarian = tested on: OVCAR-4 ovarian
CCRF-CEM leukemia = tested on: CCRF-CEM leukemia
UACC-257 melanoma = tested on: UACC-257 melanoma
MCF7 breast = tested on: MCF7 breast
HL-60(TB) leukemia = tested on: HL-60(TB) leukemia
HT29 colon = tested on: HT29 colon
HCT-116 colon = tested on: HCT-116 colon
PC-3 prostate = tested on: PC-3 prostate
NCI-H460 NSCLC = tested on: NCI-H460 NSCLC
SF-268 CNS = tested on: SF-268 CNS
OVCAR-5 ovarian = tested on: OVCAR-5 ovarian
KM12 colon = tested on: KM12 colon
T-47D breast = tested on: T-47D breast
MDA-MB-435 melanoma = tested on: MDA-MB-435 melanoma
SW-620 colon = tested on: SW-620 colon
NCI-H522 lung = tested on: NCI-H522 lung
SF-539 CNS = tested on: SF-539 CNS
CAKI-1 renal = tested on: CAKI-1 renal
M14 melanoma = tested on: M14 melanoma
786-0 renal = tested on: 786-0 renal
LOX IMVI melanoma = tested on: LOX IMVI melanoma
MALME-3M melanoma = tested on: MALME-3M melanoma
MDA-MB-231 breast = tested on: MDA-MB-231 breast
MOLT-4 leukemia = tested on: MOLT-4 leukemia
MDA-MB-468 breast = tested on: MDA-MB-468 breast

What does the source list for `COc1ccc2[nH]c3c(c2c1)CCN[C@]31CS[C@@H]2c3c(OC(C)=O)c(C)c4c(c3[C@H](COC1=O)N1[C@@H]2[C@H]2c3c(cc(C)c(OC)c3O)C[C@@H]([C@@H]1O)N2C)OCO4`?
GI50 (BT-549 breast): 0.0503 nM; TGI (BT-549 breast): 0.113 nM; GI50 (OVCAR-8 ovarian): 0.126 nM; TGI (OVCAR-8 ovarian): 0.487 nM; GI50 (UACC-62 melanoma): 0.0874 nM; TGI (UACC-62 melanoma): 0.31 nM; GI50 (IGROV1 ovarian): 0.416 nM; TGI (IGROV1 ovarian): 7.86 nM; GI50 (HCT-15 colon): 0.414 nM; TGI (HCT-15 colon): 1.06 nM; GI50 (EKVX NSCLC): 0.649 nM; TGI (EKVX NSCLC): 1.49 nM; GI50 (SN12C renal): 0.107 nM; TGI (SN12C renal): 0.422 nM; GI50 (NCI-H23 lung): 0.0752 nM; TGI (NCI-H23 lung): 0.194 nM; GI50 (SK-MEL-5 melanoma): 0.0874 nM; TGI (SK-MEL-5 melanoma): 0.243 nM; GI50 (UO-31 renal): 1.68 nM; TGI (UO-31 renal): 3.1 nM; GI50 (ACHN renal): 0.435 nM; TGI (ACHN renal): 1.61 nM; GI50 (A498 renal): 1.16 nM; TGI (A498 renal): 2.96 nM; GI50 (TK-10 renal): 2.64 nM; TGI (TK-10 renal): 7.17 nM; GI50 (OVCAR-3 ovarian): 0.189 nM; TGI (OVCAR-3 ovarian): 0.863 nM; GI50 (SNB-75 CNS): 0.0809 nM; TGI (SNB-75 CNS): 0.224 nM; GI50 (RXF 393 renal): 0.0493 nM; TGI (RXF 393 renal): 0.111 nM; GI50 (COLO 205 colon): 0.432 nM; TGI (COLO 205 colon): 1.06 nM; GI50 (SR leukemia): 0.0186 nM; TGI (SR leukemia): 0.0575 nM; GI50 (RPMI-8226 leukemia): 0.0579 nM; TGI (RPMI-8226 leukemia): 0.108 nM; GI50 (SF-295 CNS): 0.0573 nM; TGI (SF-295 CNS): 0.115 nM; GI50 (U251 glioblastoma): 0.112 nM; TGI (U251 glioblastoma): 0.554 nM; GI50 (A549 NSCLC): 0.65 nM; TGI (A549 NSCLC): 2.91 nM; GI50 (SK-OV-3 ovarian): 0.181 nM; TGI (SK-OV-3 ovarian): 9.81 nM; GI50 (NCI-H226 lung): 0.109 nM; TGI (NCI-H226 lung): 0.452 nM; GI50 (HS 578T breast): 0.13 nM; TGI (HS 578T breast): 0.372 nM; GI50 (SK-MEL-28 melanoma): 0.44 nM; TGI (SK-MEL-28 melanoma): 0.877 nM; GI50 (NCI-H322M lung): 0.522 nM; TGI (NCI-H322M lung): 1.29 nM; GI50 (SNB-19 CNS): 0.124 nM; GI50 (HOP-62 NSCLC): 0.0549 nM; TGI (HOP-62 NSCLC): 0.115 nM; GI50 (DU-145 prostate): 0.196 nM; TGI (DU-145 prostate): 0.367 nM; GI50 (OVCAR-4 ovarian): 2.59 nM; TGI (OVCAR-4 ovarian): 5.77 nM; GI50 (CCRF-CEM leukemia): 0.0192 nM; TGI (CCRF-CEM leukemia): 0.0348 nM; GI50 (UACC-257 melanoma): 0.428 nM; TGI (UACC-257 melanoma): 0.848 nM; GI50 (MCF7 breast): 0.12 nM; TGI (MCF7 breast): 5.95 nM; GI50 (HL-60(TB) leukemia): 0.0524 nM; TGI (HL-60(TB) leukemia): 0.0982 nM; GI50 (HT29 colon): 0.123 nM; TGI (HT29 colon): 0.42 nM; GI50 (HCT-116 colon): 0.16 nM; GI50 (PC-3 prostate): 0.337 nM; TGI (PC-3 prostate): 2.85 nM; GI50 (NCI-H460 NSCLC): 0.104 nM; TGI (NCI-H460 NSCLC): 0.446 nM; GI50 (SF-268 CNS): 0.0705 nM; TGI (SF-268 CNS): 0.186 nM; GI50 (OVCAR-5 ovarian): 0.51 nM; GI50 (KM12 colon): 1.44 nM; TGI (KM12 colon): 3.96 nM; GI50 (T-47D breast): 0.41 nM; TGI (T-47D breast): 2.56 nM; GI50 (MDA-MB-435 melanoma): 0.594 nM; TGI (MDA-MB-435 melanoma): 1.1 nM; GI50 (SW-620 colon): 0.502 nM; TGI (SW-620 colon): 6.77 nM; GI50 (NCI-H522 lung): 0.0779 nM; TGI (NCI-H522 lung): 0.261 nM; GI50 (SF-539 CNS): 0.0587 nM; TGI (SF-539 CNS): 0.111 nM; GI50 (CAKI-1 renal): 0.156 nM; TGI (CAKI-1 renal): 6.95 nM; GI50 (M14 melanoma): 0.0827 nM; TGI (M14 melanoma): 0.191 nM; GI50 (786-0 renal): 0.194 nM; TGI (786-0 renal): 0.348 nM; GI50 (LOX IMVI melanoma): 0.0682 nM; TGI (LOX IMVI melanoma): 0.18 nM; GI50 (MALME-3M melanoma): 0.0967 nM; TGI (MALME-3M melanoma): 0.273 nM; GI50 (MDA-MB-231 breast): 0.786 nM; TGI (MDA-MB-231 breast): 2.42 nM; GI50 (MOLT-4 leukemia): 0.0141 nM; TGI (MOLT-4 leukemia): 0.0474 nM; GI50 (MDA-MB-468 breast): 0.0569 nM; TGI (MDA-MB-468 breast): 0.119 nM
